# Laboratory results from patent publication US20240391862A1, “(1,4,5-TRISUBSTITUTED-1H-PYRAZOL-3-YL)OXY-2-ALKOXY ALKYL ACIDS AND THEIR DERIVATIVES, THEIR SALTS AND THEIR USE AS HERBICIDAL AGENTS” (Bayer AKtiengesellschaft, priority 2021, published 2024).
# What was measured:
# ZEAMX = assay: Post-emergence herbicidal effect and crop plant compatibility, greenhouse pot test; assay type: in vivo, Zea mays; settings: 20 g/ha, one-leaf stage, rated visually after about 3 weeks vs untreated controls
# Outline: (§1)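 Greenhouse pot test: weeds and crops sown in sandy loam, sprayed post-emergence at one-leaf stage (2–3 weeks after sowing) with WP or EC formulations plus 0.5% additive at 600 l/ha water, rates 20–320 g/ha. Visual rating about 3 weeks later versus untreated controls (100% = dead, 0% = as control).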
# AMARE = assay: Post-emergence herbicidal effect, greenhouse pot test; assay type: in vivo, Amaranthus retroflexus; settings: Amaranthus retroflexus, 504 h, 320 g/ha, visual rating about 3 weeks after treatment, read-out: Post-emergence effect against AMARE
# Outline: as §1
# ABUTH = assay: as above; assay type: in vivo, Abutilon theophrasti; settings: Abutilon theophrasti, 504 h, 320 g/ha, visual rating about 3 weeks after treatment, read-out: Post-emergence effect against ABUTH
# Outline: as §1
# TRZAS = assay: Post-emergence herbicidal effect and crop plant compatibility, greenhouse pot test; assay type: in vivo, Triticum aestivum; settings: for Post-emergence effect against TRZAS: visual rating about 3 weeks after treatment, crop plant
# Outline: as §1
# AVEFA = assay: Post-emergence herbicidal effect, greenhouse pot test; assay type: in vivo, Avena fatua; settings: Avena fatua, 504 h, 320 g/ha, visual rating about 3 weeks after treatment, read-out: Post-emergence effect against AVEFA
# Outline: as §1
# ORYSA = assay: Post-emergence herbicidal effect and crop plant compatibility, greenhouse pot test; assay type: in vivo, Oryza sativa; settings: 320 g/ha, one-leaf stage, rated visually after about 3 weeks vs untreated controls
# Text: (§2) • ALOMY: Alopecurus myosuroides SETVI: Setaria viridis • AVEFA: Avena fatua POLCO: Fallopia convolvulus • AMARE: Amaranthus retroflexus ECHCG: Echinochloa crus-galli • LOLRJ: Lolium rigidum STEME: Stellaria media • VERPE: Veronica persica MATIN: Tripleurospermum inodorum • DIGSA: Digitaria sanguinalis ABUTH: Abutylon threophrasti • TRZAS: Triticum aestivum VIOTR: Viola tricolor • BRSNW: Brassica napus ZEAMX: Zea mays • PHBPU: Ipomoea purpurea GLXMA: Glycine max • ORYSA: Oryza sativa HORMU: Hordeum murinum
# (§3) Seeds of monocotyledonous and dicotyledonous weeds and crop plants are placed in sandy loam in plastic or organic planting pots, covered with soil and cultivated in a greenhouse under controlled growth conditions. 2 to 3 weeks after sowing, the trial plants are treated at the one-leaf stage. The compounds of the invention, formulated in the form of wettable powders (WP) or as emulsion concentrates (EC), are then sprayed onto the green parts of the plants as aqueous suspension or emulsion with addition of 0.5% additive at a water application rate of 600 l/ha (converted). After the test plants have been kept in the greenhouse under optimum growth conditions for about 3 weeks, the activity of the preparations is rated visually in comparison to untreated controls. For example, 100% activity=the plants have died, 0% activity=like control plants.
# (§4) Tables 20a to 38c below show the effects/crop compatibilities of selected compounds of the general formula (I) on various harmful plants at an application rate corresponding to 20 to 320 g/ha, which were obtained by the trial procedure specified above.
# DIGSA = assay: Post-emergence herbicidal effect, greenhouse pot test; assay type: in vivo, Digitaria sanguinalis; settings: Digitaria sanguinalis, 504 h, 320 g/ha, visual rating about 3 weeks after treatment, read-out: Post-emergence effect against DIGSA
# Outline: as §1
# ALOMY = assay: as above; assay type: in vivo, Alopecurus myosuroides; settings: Alopecurus myosuroides, 504 h, 320 g/ha, visual rating about 3 weeks after treatment, read-out: Post-emergence effect against ALOMY
# Outline: as §1
# SETVI = assay: as above; assay type: in vivo, Setaria viridis; settings: 320 g/ha
# Outline: as §1
# LOLRI = assay: as above; assay type: in vivo, Lolium rigidum; settings: Lolium rigidum, 504 h, 320 g/ha, read-out: Post-emergence effect against LOLRI in %
# Outline: as §1
# ECHCG = assay: as above; assay type: in vivo, Echinochloa crus-galli
# Outline: as §1
# GLXMA = assay: Post-emergence herbicidal effect and crop plant compatibility, greenhouse pot test; assay type: in vivo, Glycine max; settings: 20 g/ha, visual rating about 3 weeks after treatment, crop plant
# Text: as §2, §3, §4
# PHBPU = assay: Post-emergence herbicidal effect, greenhouse pot test; assay type: in vivo, Ipomoea purpurea; settings: 320 g/ha
# Outline: as §1
structure (smiles),measurement,setting,value
COC(=O)C(OC)Oc1nn(-c2cnccn2)c(-c2ccc(F)nc2)c1Cl (stereo not drawn) [Example I-35],plant injury at 20 g/ha,"ZEAMX; Zea mays, 504 h, read-out: Post-emergence effect at 20 g/ha against ZEAMX in %",20%
same,pest or weed control at 320 g/ha,AMARE,80%
same,pest or weed control at 320 g/ha,ABUTH,80%
same,"percent crop injury (phytotoxicity) to wheat, post-emergence at 20 g/ha","TRZAS; Triticum aestivum, 504 h, 20 g/ha, one-leaf stage, rated visually after about 3 weeks vs untreated controls, read-out: Post-emergence effect at 20 g/ha against TRZAS in %",20%
same,pest or weed control at 320 g/ha,AVEFA,80%
same,Post-emergence effect at 320 g/ha against ORYSA in %,ORYSA,10%
same,pest or weed control at 320 g/ha,DIGSA,80%
same,pest or weed control at 320 g/ha,ALOMY,90%
same,pest or weed control at 320 g/ha,"SETVI; Setaria viridis, 504 h, read-out: Post-emergence effect against SETVI in %",80%
same,pest or weed control at 320 g/ha,LOLRI,80%
same,pest or weed control at 80 g/ha,"ECHCG; Echinochloa crus-galli, 504 h, 80 g/ha, read-out: Post-emergence effect against ECHCG in %",80%
same,pest or weed control at 320 g/ha,"ECHCG; Echinochloa crus-galli, 504 h, 320 g/ha, read-out: Post-emergence effect against ECHCG in %",90%
COC(Oc1nn(-c2cccc(C)c2F)c(-c2ccnc(F)c2)c1Br)C(=O)O (stereo not drawn) [Example I-92],Post-emergence effect at 20 g/ha against ZEAMX in %,ZEAMX,20%
same,Post-emergence effect at 20 g/ha against TRZAS in %,"TRZAS; 20 g/ha, one-leaf stage, rated visually after about 3 weeks vs untreated controls",0%
same,Post-emergence effect against TRZAS,TRZAS; 80 g/ha,10%
same,Post-emergence effect against TRZAS,TRZAS; 320 g/ha,20%
same,Post-emergence effect against GLXMA,GLXMA,10%
same,Post-emergence effect against PHBPU in %,PHBPU,80%
same,Post-emergence effect against SETVI in %,SETVI,80%
same,Post-emergence effect against ECHCG in %,ECHCG; 80 g/ha,80%
same,Post-emergence effect against ECHCG in %,ECHCG; 320 g/ha,90%
